Where two headings read alike, the source gives them in different places.

The values below come from US7579331B2, “Method of improved diuresis in individuals with impaired renal function” (Novacardia, Inc., priority 2004, dated 2009).

In data set [1] the target is T1, adenosine A1 receptors (Homo sapiens, UniProt P30542).
T1 sequence (P30542 1-326): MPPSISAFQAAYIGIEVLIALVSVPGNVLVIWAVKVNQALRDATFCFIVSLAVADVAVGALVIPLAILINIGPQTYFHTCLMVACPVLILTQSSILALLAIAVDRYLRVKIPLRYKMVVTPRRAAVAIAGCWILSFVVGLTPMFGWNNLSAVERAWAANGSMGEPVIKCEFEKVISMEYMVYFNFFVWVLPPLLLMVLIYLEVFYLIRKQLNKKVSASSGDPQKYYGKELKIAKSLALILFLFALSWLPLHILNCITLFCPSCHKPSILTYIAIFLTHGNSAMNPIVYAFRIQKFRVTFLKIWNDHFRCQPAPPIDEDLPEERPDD
The following applies: read-out: A1KI, cited from earlier work.

For data set [2] the following is noted: reported by Ticho et al 2003; cited from earlier work.
Data set [3] deals with T1, adenosine A1 receptors. The following applies: BG 9719 relative to KW-3902.
The next data set relates to urine volume. The following applies: equi-potent dose .3 mg/kg or 20 mg, Wolff et al 1998; cited from earlier work.

With `CCCn1c(=O)c2nc([C@H]3C[C@H]4C[C@@H]3[C@@H]3O[C@H]43)[nH]c2n(CCC)c1=O` [BG 9719], the Ki at adenosine A1 receptors [1] (adenosine A1 receptor) and at adenosine A1 receptors [1] (repeated in the equi-potent dose table) was 0.45 ± 0.04 nM each time. In addition, the solubility entry in data set [2] is given as “poor”. For the same compound, the stability result in data set [2] is “poor”. The “greater affinity for the A1 receptor than KW-3902” value at adenosine A1 receptors [3] was 60%. In the data set with urine volume, the “% Urine volume increase over placebo, 3 hr” value is 33%.
